Source: ChEMBL document CHEMBL1201862, “PubChem BioAssay data set” (2004)
Calls of active or inactive are those of the source.

Columns and labels:
Cytochrome P450 2C9 [1] = molecular target: T1, Cytochrome P450 2C9 (Homo sapiens, UniProt P11712); details: Potency
[2] = cytotoxicity in HEK-293T cells, dose response, cytotoxicity control for TCR NF-kB inhibitor project, luminescence, T-cell screen hits (AID 489026); assay type: functional, cell-based;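 further: cells exposed to compound about 14 hours before the viability readout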
[3] = Luminescence-based counterscreen assay for KLF5 inhibitors: dose response cell-based high throughput screening assay to identify cytotoxic compounds using the IEC-6 intestinal epithelial cell line. [Related pubchem assays: 1700 (Primary screen.), 1834 (Confirmation screen.), 1858 (Summary AID.), 1905 (Counterscreen.)]; assay type: functional
HEK293 = assay: cells; details: Homo sapiens;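 further: cells exposed to compound for 14 hours overnight before viability readout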
[4] = Luminescence Cell-Based Dose Confirmation HTS to Identify Inhibitors of Platelet Dense Granule Release. [Related pubchem assays: 1663 (Primary HTS), 1678 (Summary of Project)]; assay type: functional
Cytochrome P450 3A4 = Cytochrome P450 3A4 (Homo sapiens, UniProt P08684); details: Potency;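 further: confirmatory qHTS run detecting inhibitors and substrates of CYP3A4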
[5] = molecular target: T2, Apoptotic protease-activating factor 1 (Homo sapiens, UniProt O14727); assay type: functional
T2 sequence (O14727 whole entry): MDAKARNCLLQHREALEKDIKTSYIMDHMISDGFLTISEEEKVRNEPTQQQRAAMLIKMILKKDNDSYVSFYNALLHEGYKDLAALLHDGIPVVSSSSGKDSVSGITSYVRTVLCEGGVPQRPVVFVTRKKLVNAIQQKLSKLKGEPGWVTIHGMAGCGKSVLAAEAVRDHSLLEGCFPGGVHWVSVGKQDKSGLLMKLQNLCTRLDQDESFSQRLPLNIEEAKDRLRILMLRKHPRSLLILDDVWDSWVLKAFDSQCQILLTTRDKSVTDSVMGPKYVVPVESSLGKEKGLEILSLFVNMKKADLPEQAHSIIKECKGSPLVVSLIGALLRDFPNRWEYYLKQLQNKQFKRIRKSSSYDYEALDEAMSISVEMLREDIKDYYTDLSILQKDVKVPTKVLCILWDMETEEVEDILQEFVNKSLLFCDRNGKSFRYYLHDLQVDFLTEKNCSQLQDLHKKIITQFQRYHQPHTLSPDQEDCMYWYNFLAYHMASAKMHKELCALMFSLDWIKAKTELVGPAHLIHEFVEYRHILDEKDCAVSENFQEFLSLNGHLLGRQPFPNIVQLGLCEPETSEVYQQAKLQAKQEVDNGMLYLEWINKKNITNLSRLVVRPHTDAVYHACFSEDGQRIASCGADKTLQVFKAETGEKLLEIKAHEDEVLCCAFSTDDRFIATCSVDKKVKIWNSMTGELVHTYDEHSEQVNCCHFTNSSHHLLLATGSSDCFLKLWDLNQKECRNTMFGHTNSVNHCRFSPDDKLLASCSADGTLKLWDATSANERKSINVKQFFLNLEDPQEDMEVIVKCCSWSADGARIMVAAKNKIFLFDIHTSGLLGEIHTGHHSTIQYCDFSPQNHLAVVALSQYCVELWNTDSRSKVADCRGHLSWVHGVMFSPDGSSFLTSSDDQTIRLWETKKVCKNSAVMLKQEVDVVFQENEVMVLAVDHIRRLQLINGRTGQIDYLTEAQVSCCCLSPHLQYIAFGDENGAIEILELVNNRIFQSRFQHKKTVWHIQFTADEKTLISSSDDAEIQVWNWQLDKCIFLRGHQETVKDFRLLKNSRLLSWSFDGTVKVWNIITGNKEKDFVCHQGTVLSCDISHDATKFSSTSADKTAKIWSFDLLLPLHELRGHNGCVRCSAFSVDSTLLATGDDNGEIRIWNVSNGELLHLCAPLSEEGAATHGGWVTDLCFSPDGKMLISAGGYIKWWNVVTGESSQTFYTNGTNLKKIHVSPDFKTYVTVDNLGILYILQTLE

[6] = molecular target: T3, Mannose-6-phosphate isomerase (Homo sapiens, UniProt P34949); assay: inhibitors of human PMI, primary screen, biochemical, fluorescence intensity, coupled assay (AID 1209)
T3 sequence (P34949 whole entry): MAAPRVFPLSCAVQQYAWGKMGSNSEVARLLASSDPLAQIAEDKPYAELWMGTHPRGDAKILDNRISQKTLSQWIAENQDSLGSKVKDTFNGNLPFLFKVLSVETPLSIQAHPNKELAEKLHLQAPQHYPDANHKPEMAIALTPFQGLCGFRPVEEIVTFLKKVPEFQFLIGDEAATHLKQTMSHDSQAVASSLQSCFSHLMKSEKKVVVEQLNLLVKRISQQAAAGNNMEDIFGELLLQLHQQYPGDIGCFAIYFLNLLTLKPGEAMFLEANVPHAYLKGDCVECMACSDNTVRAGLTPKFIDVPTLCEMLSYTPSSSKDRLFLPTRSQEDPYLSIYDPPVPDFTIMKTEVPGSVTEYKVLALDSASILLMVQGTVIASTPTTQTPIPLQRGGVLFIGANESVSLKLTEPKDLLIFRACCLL

[7] = molecular target: T3, Mannose-6-phosphate isomerase; assay: human PMI inhibitors, high substrate, primary screen, biochemical, fluorescence intensity, high mannose 6-phosphate (AID 1220)
Protein RecA = molecular target: T4, Protein RecA (Mycobacterium tuberculosis, UniProt P9WHJ3); assay: Fluorescence Cell-Free Homogeneous Dose Retest to Identify Inhibitors of RecA-Intein Splicing Activity. [Related pubchem assays (depositor defined):AID2097, AID2223, AID489010, AID492950]; assay type: functional
T4 sequence (P9WHJ3 whole entry): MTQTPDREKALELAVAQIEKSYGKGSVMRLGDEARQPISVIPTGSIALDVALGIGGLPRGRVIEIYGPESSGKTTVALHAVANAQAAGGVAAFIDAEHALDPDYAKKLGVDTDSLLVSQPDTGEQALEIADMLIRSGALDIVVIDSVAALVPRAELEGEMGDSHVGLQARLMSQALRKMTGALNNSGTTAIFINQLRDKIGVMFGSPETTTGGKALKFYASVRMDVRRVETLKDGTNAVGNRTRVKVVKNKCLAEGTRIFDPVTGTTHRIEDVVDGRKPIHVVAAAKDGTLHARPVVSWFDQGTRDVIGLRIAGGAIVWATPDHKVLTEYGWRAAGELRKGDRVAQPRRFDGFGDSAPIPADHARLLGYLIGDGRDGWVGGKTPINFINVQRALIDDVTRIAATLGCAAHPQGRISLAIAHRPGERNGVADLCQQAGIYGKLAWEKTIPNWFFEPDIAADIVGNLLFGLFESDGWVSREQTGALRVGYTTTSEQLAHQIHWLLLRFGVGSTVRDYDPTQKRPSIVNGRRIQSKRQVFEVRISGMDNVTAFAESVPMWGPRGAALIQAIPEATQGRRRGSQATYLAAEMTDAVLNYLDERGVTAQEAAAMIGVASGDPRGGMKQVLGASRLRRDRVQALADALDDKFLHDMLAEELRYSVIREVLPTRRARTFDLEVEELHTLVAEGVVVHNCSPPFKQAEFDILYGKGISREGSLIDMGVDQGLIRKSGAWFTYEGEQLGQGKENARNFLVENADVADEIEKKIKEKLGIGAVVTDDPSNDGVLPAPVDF

Cytochrome P450 2C9 [8] = molecular target: T1, Cytochrome P450 2C9
Streptococcus = assay: Group A Streptococcus viability loss, dose response, counter-screen for streptokinase expression inhibitor project, luminescence, BacTiterGlo (AID 1915); assay type: functional, organism-based;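 further: potency for reduction of bacterial viability or growth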
[9] = molecular target: Heat shock protein HSP 90-alpha (Homo sapiens, UniProt P07900); assay type: functional, organism-based
[10] = molecular target: T5, Polyadenylate-binding protein 1 (Homo sapiens, UniProt P11940); assay: PABP1 MLLE–PAM2 interaction inhibitors, dose response, miRNA deadenylation inhibitor project, biochemical, fluorescence polarization, Cy5-PAM2 peptide, secondary (AID 602260); assay type: functional; details: read-out: IC50_Mean
[11] = molecular target: T5, Polyadenylate-binding protein 1; assay: PABP1 MLLE–PAM2 binding inhibitor potency, dose response, biochemical, fluorescence polarization, FITC-PAM2 peptide (AID 602259); assay type: functional; details: read-out: IC50_Mean
Vero = Vero cell cytotoxicity, cytotoxicity control for flavivirus capping enzyme inhibitors (AID 588742); assay type: functional; details: Chlorocebus sabaeus
Nonstructural protein 1 = Nonstructural protein 1 (Influenza A virus, UniProt Q194T2); assay type: functional, Influenza A virus (A/California/07/2009(H1N1))
[12] = ADAM10 protease inhibitors, dose response, selectivity assay for ADAM17 exosite inhibitor project, biochemical, FRET peptide substrate, recombinant human ADAM10 (AID 743259);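 further: ADAM10 enzyme cleaving a FRET peptide substrate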
INS1 = assay: beta cell apoptosis inhibitors, cytokine rescue, dose response, luminescence, retest (AID 449756); assay type: functional, cell-based; details: Rattus norvegicus;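 further: cell death triggered by IL-1 beta plus TNF-alpha plus IFN-gamma mixture; protective hits raise ATP signal compared with cytokine alone wells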
[13] = molecular target: Disintegrin and metalloproteinase domain-containing protein 17 (Homo sapiens, UniProt P78536); assay: exosite inhibitors of ADAM17, dose response, biochemical (AID 743260)
[14] = tested on: Streptococcus sp. 'group A'; assay: growth inhibition of control SK(-) GAS strain, dose response, counter-screen for streptokinase expression inhibitor project, luminescence, kanamycin, BacTiterGlo, confirmation (AID 1900); assay type: functional, organism-based

T1 sequence (P11712 whole entry): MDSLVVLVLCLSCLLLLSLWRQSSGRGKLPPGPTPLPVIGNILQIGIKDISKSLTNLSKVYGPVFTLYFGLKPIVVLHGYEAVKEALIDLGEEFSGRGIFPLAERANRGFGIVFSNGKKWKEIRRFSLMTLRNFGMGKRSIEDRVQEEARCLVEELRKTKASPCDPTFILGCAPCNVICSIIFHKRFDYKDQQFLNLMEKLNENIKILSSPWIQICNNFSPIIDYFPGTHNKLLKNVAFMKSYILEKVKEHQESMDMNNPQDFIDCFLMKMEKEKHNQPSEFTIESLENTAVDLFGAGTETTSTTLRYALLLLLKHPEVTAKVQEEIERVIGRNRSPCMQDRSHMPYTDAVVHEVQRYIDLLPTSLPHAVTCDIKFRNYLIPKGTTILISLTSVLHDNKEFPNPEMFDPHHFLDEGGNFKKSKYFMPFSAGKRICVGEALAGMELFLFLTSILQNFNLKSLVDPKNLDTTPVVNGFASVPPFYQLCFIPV
T5 sequence (P11940 whole entry): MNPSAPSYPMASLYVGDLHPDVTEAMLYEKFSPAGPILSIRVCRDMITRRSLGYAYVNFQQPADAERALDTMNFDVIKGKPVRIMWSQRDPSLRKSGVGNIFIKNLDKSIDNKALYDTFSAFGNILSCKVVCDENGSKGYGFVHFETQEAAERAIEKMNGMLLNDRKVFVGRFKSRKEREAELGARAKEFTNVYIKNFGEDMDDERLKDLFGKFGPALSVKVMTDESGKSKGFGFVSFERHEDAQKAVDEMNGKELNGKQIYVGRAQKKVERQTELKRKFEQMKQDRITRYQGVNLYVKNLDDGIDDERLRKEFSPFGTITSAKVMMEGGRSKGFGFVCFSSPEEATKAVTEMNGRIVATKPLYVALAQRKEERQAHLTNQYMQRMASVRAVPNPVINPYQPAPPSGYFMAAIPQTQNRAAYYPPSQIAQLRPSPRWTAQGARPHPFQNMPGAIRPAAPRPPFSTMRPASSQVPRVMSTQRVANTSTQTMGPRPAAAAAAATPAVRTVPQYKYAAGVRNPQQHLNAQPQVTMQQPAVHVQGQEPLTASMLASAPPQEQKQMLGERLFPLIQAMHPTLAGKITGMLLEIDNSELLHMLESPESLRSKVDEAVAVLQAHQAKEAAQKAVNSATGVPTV
Chain of Cytochrome P450 3A4 (P08684 whole entry): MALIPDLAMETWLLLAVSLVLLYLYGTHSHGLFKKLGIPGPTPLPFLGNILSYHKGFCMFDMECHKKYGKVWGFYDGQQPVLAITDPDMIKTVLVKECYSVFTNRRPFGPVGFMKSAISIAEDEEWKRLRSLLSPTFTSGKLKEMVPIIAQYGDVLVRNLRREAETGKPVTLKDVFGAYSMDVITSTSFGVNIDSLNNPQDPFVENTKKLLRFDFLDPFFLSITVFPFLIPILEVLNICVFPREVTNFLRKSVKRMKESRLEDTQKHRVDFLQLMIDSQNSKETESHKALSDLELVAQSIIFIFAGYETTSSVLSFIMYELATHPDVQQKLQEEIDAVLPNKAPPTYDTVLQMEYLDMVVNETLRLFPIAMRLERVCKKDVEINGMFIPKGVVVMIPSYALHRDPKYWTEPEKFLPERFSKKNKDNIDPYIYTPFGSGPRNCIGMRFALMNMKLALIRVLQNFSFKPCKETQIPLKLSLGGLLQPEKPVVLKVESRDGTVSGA
Chain of Nonstructural protein 1 (Q194T2 whole entry): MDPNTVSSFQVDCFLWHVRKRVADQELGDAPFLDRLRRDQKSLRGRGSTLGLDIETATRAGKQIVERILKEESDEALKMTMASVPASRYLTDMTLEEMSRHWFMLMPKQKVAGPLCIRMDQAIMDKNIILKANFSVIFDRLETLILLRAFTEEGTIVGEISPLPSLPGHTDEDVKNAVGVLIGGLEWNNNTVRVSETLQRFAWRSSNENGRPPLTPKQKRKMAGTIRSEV
Chain of Disintegrin and metalloproteinase domain-containing protein 17 (P78536 whole entry, the tested form may be a part): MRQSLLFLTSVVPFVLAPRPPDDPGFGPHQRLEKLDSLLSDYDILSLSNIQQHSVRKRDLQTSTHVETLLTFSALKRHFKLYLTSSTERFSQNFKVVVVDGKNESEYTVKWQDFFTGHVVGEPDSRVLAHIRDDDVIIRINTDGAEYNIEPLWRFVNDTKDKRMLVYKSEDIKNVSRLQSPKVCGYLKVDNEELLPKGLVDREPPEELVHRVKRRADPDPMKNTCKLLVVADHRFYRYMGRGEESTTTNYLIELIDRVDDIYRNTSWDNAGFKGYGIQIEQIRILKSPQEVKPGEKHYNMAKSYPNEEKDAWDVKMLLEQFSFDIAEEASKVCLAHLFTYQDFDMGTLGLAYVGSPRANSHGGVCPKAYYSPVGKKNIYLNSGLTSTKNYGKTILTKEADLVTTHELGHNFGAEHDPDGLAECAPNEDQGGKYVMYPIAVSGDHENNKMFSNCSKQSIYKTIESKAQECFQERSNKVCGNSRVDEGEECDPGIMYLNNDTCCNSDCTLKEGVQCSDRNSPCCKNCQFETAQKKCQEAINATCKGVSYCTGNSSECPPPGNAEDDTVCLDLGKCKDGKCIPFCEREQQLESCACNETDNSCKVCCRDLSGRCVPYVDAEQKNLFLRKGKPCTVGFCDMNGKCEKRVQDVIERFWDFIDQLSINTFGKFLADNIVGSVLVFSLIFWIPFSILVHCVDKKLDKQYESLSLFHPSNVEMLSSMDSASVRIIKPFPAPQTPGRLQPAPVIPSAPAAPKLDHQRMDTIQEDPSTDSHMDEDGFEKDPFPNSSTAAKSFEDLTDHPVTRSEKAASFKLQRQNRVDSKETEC

With `OCC1OC(c2ccc3c(c2)OCO3)C=CC1Oc1cc(Cl)cc(Cl)c1` (centres undefined) the AC50 (Cytochrome P450 2C9 [1]) was 3.98 µM (inconclusive).
In the case of `CC(C)(C)c1ccc(C(=O)O/N=C(\N)c2ccccc2)cc1`, the IC50 [2] was > 80 µM (inactive), the IC50 [3] was 5.77 µM (active) and the IC50 (HEK293) was 5.99 µM (active). For the same compound, the EC50 [4] was 4.8 µM (active).
For `COc1cc(O)c(C(=O)c2ccccc2)cc1O` [CEAROIN], the AC50 (Cytochrome P450 3A4) was 0.794 µM (inconclusive).
With `COC(=O)[C@@H]1C[C@@]2(O)[C@H](O)[C@H](O)[C@H](O)C[C@H]2N1Cc1ccc(-c2ccccc2)cc1` the AC50 (Cytochrome P450 3A4) was 15.8 µM (inconclusive).
For `c1cc2cn[nH]c2cc1NC1CCCCCC1`, the IC50 [5] was 1.94 µM (active), the IC50 [6] was > 50 µM (not active) and the IC50 [7] was > 50 µM (not active). The EC50 (Protein RecA) was 8.81 µM (active).
In the case of `CC(C)(C)c1ccc(S(=O)(=O)/C=C\C#N)cc1`, the AC50 (Cytochrome P450 2C9 [8]) was 7.94 µM (inconclusive) and the AC50 (Cytochrome P450 2C9 [1]) was 2.51 µM (inconclusive).
In the case of `Cc1ccc(S(=O)(=O)Nc2cc(Cl)c(O)c3ncccc23)cc1`, the EC50 (Streptococcus) was 9.72 µM (active), the AC50 [9] was 2.38 µM (active) and the IC50 [10] was > 66 µM (inactive). For the same compound, the IC50 [11] was > 66 µM (inactive), the CC50 (Vero) was 5.28 µM (active) and the IC50 (Nonstructural protein 1) was 11.5 µM (active). For the same compound, the IC50 [12] was 11.1 µM (inactive), the IC50 [3] was 4.8 µM (active) and the AC50 (INS1) was 2.4 µM (active). For the same compound, the IC50 [13] was 21.2 µM (inactive) and the EC50 [14] was 8.9 µM (active).
